Patent US20100190797A1, “C[…] OF ZOPICLONE, PROCESSES FOR THEIR PREPARATION AND THEIR PHARMACEUTICAL COMPOSITIONS” (CIPLA LTD., priority 2007, published 2010)

Columns and labels:
[1] = background statement; Form A gets converted into dihydrate Form B; cited from earlier work
[2] = Stability of crystalline polymorphic forms of Zopiclone (conversion to hydrate form); details: conversion to more stable hydrate form of Zopiclone
[3] = Hygroscopicity on exposure to air; type: physicochemical; details: does not capture moisture even on exposure to air

CN1CCN(C(=O)OC2c3nccnc3C(=O)N2c2ccc(Cl)cn2)CC1 (centres unmarked) [Form B, Zopiclone]
stability of the known crystalline form [1]: thermodynamically stable

CN1CCN(C(=O)OC2c3nccnc3C(=O)N2c2ccc(Cl)cn2)CC1 (centres unmarked) [Form C, Zopiclone]
thermodynamic stability of the crystalline form [2]: thermodynamically unstable

CN1CCN(C(=O)OC2c3nccnc3C(=O)N2c2ccc(Cl)cn2)CC1 (centres unmarked) [Zopiclone Form A, Zopiclone]
stability of the known crystalline form [1]: unstable

CN1CCN(C(=O)OC2c3nccnc3C(=O)N2c2ccc(Cl)cn2)CC1 (centres unmarked) [Zopiclone Form D, Zopiclone]
thermodynamic stability of the crystalline form [2]: stable
hygroscopicity [3]: non-hygroscopic
